One data set deals with Aβ(1-42) oligomers. The data set is described as follows: ELISA binding to Aβ(1-42) oligomers. Details: species or system human. The following applies: 250 ng/well, 10% N-biotinylated oligomers on streptavidin plate; compared with fibrils, p = 0.0014. How it is done:
(§1) 1 mg of Aβ(1-42) or N-terminally/C-terminally biotinylated Aβ(1-42) was dissolved in 1 ml 1,1,1,3,3,3-hexafluorosiopropanol (HFIP) and incubated overnight at room temperature. Afterwards, Aβ(1-42) was mixed in the favored ratio with N-terminally/C-terminally biotinylated Aβ(1-42) and aliquoted. HFIP was evaporated using a SpeedVac (Concentrator 5301, Eppendorf, Germany) at room temperature for 30 min. To evaporate remaining HFIP, the sample was incubated overnight at room temperature with an open lid.
(§2) The preparation of Aβ(1-42) monomers and oligomers was carried out by size exclusion chromatography (SEC) as already described by Johansson et al with minor modifications. 250 µg of Aβ peptide was dissolved in 130 µl SEC buffer (50 mM NaPi, pH 7.4; 150 mM NaCl; 0.6% Tween-20) and briefly centrifuged (1 min, 16 100×g, room temperature) to remove insoluble fibrillar material. 100 µl of the supernatant was applied on a Superdex75 10/300 column (GE Healthcare, UK) connected to an Äkta purifier system (GE Healthcare, UK). The sample was eluted at a flow rate of 0.6 ml per min at room temperature and detected at wavelengths of 214, 250 and 278 nm. […] The concentration of the Aβ preparations was determined using the Micro BCA Protein Assay Kit (Thermo Scientific, Waltham, MA, USA). […] The samples were measured at a wavelength of 570 nm with a Polarstar Optima plate reader (BMG, Ortenberg, Germany). […]
In general terms: In an ELISA, binding on a coated surface is turned into a signal by an enzyme label.

A further data set has as its system Aβ(1-42) fibrils. The data set is described as follows: ELISA binding to Aβ(1-42) fibrils. Set-up: species or system human. The following applies: 250 ng/well, 10% N-biotinylated fibrils on streptavidin plate; scFv-IC16 12 and 23 nM; Penta-His and HRP anti-mouse detection, absorbance 450 nm. Here is the method: as §1, §2

The values below come from PMC3608532, “Characterization of a Single-Chain Variable Fragment Recognizing a Linear Epitope of Aβ: A Biotechnical Tool for Studies on Alzheimer’s Disease?” (PLoS ONE, 2013).

For the substance “scFv-IC16: single-chain variable fragment (VH-(Gly4Ser)3-VL, His6- and Myc-tag) derived from Aβ binding monoclonal antibody IC16, expressed in E. coli”, in the data set on Aβ(1-42) oligomers, the “ELISA binding to Aβ oligomers” value is “weaker”. In the data set on Aβ(1-42) fibrils, the “ELISA binding to Aβ fibrils” value is given as “preferential binding”.
